Assay results published in patent EP4752152A1, “STEROID COMPOUND, AND PREPARATION METHOD THEREFOR AND USE THEREOF” (Cholesgen (Shanghai) Co.Ltd., priority 2023, dated 2025).
≈ marks a conversion by molar mass, not a printed value. Read-outs that look alike come from different tables or passages of the source.

Columns and labels:
SREBP pathway = assay: SREBP luciferase reporter gene system (SRE-luciferase assay); format: cell-based, human; settings: Homo sapiens, Huh-7, 16 h, Huh-7/SRE-luc cells, sterol-deficient medium, 0.01-10 µM
In short: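 Readout was SRE-driven luciferase normalised to GFP fluorescence in lysates of stably transfected Huh-7/SRE-luc hepatoma cells. Compounds (0.01, 0.03, 0.1, 0.3, 1.0, 3.0, 10 µM; DMSO control) were applied for 16 h in sterol-depleted medium with 2 µM lovastatin and 10 µM mevalonate; IC50 from variable-slope fit.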

[1] = Solubility in fasted-state simulated intestinal fluid (FaSSIF); format: physicochemical; settings: FaSSIF, pH 6.5, fassif, kinetic from dmso stock, FaSSIF pH 6.5, 300 µM sample solution, room temperature
In short: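 Compound from 10.0 mM DMSO stock added to FaSSIF (phosphate/NaCl buffer, pH 6.5) at 300 µM nominal, shaken 1 h at room temperature, 1000 rpm. After centrifugation, supernatant concentration quantified by LC-MS/MS.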

[2] = system: Fatty Acid Synthase (FASN) gene; assay: Inhibition of FASN gene expression (qPCR) in Huh-7 cells; format: cell-based, human; settings: Homo sapiens, Huh-7, 16 h, Huh-7 cells, starvation medium, 16 hours, qPCR, read-out: FASN IC50
In short: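 IC50 derived by four-parameter fit of FASN expression inhibition versus DMSO, measured by RT-qPCR. Compound exposure lasted 16 h at five 3-fold concentrations from 3000 nM, applied to Huh-7 cells in sterol-depleting medium with 5% LPDS, 2 µM lovastatin and 10 µM mevalonate.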

[3] = Metabolic stability experiment of mouse liver microsomes; format: in vitro ADME
Method: PB solution (100 mM), MgCl2 solution (300 mM), NADPH solution (2.04 mM), and mouse liver microsome (SHQY catalog number: M1000, batch number: 2110330) solution (1.00 mg/mL) were prepared respectively. […] Then, 100 µL of mouse liver microsome solution was added to a 96-well sample plate. For the 0 min sample, acetonitrile solution containing the internal standard was first added; then, 2 µL of 100 µM working solution was added; followed by the addition of 98 µL of pre-warmed 2.04 mM NADPH at 37°C. For the 5 min, 15 min, 30 min, 45 min, and 60 min samples, 2 µL of 100 µM working solution was first added; followed by the addition of 98 µL of pre-warmed 2.04 mM NADPH at 37°C to initiate the reaction; upon reaching the respective time points, a solution of acetonitrile containing the internal standard was added to terminate the reaction. For the NCF60 sample, 2 µL of 100 µM working solution was first added; followed by the addition of 98 µL of pre-warmed PB at 37°C to initiate the reaction; upon reaching the respective time points, a solution of acetonitrile containing the internal standard was added to terminate the reaction. During the experiment, all samples were incubated in a 37°C water bath. All samples were shaken on an oscillator at 800 rpm for 10 min, then centrifuged at 3200 g for 20 min. The supernatant was aspirated, diluted with deionized water at the corresponding ratio, and analyzed by LC-MS/MS. The remaining percentage of the compound at each time point was obtained by dividing the peak area ratio of the compound at 5, 15, 30, 45, and 60 min by the peak area ratio at 0 min. The half-life (T1/2) of the compound was then calculated using Excel. Table 2: Mouse liver microsome stability results of compounds from some examples

SMILES	IC50 (SREBP pathway)	solubility at 1 h [1]	IC50 ([2]; class symbols)	half-life at 1 µM [3]	IC50 ([2]; numeric value)
COc1cccc(F)c1[C@H](O)CCC[C@@H](C)[C@H]1CC[C@H]2[C@H]3[C@H](CC[C@]12C)[C@@]1(C)CC[C@H](O)[C@H](O)[C@@H]1CC3(F)F [Compound 128, (1R,3aS,3bS,5aR,6R,7S,9aR,9bS,11aR)-4,4-difluoro-1-[(2R,6R)-6-(2-fluoro-6-methoxyphenyl)-6-hydroxyhexan-2-yl]-9a,11a-dimethylhexadecahydro-1H-cyclopenta[1,2-a]phenanthrene-6,7-diol]	0.139 µM	199 µM (≈ 110 µg/mL)	200 to 500 nM	> 3.1 h	
COc1ncccc1C(O)CCC[C@@H](C)[C@H]1CC[C@H]2[C@H]3[C@H](CC[C@]12C)[C@@]1(C)CC[C@H](O)[C@H](O)[C@@H]1CC3(F)F (stereo partly drawn) [Compound 81, (1R,3aS,3bS,5aR,6R,7S,9aR,9bS,11aR)-4,4-difluoro-1-[(2R)-6-(2-methoxypyridin-3-yl)-6-hydroxyhexan-2-yl]-9a,11a-dimethylhexadecahydro-1H-cyclopenta[1,2-a]phenanthrene-6,7-diol]	0.11 µM	279 µM (≈ 150 µg/mL)	< 200 nM	1.91 h	
COc1ccccc1C(O)CCC[C@@H](C)[C@H]1CC[C@H]2[C@H]3[C@H](CC[C@]12C)[C@@]1(C)CC[C@H](O)[C@H](O)[C@@H]1CC3(F)F (stereo partly drawn) [Compound 37, (1R,3aS,3bS,5aR,6R,7S,9aR,9bS,11aR)-4,4-difluoro-1-[(2R)-6-hydroxy-6-(2-methoxyphenyl)hexan-2-yl]-9a,11a-dimethylhexadecahydro-1H-cyclopenta[1,2-a]phenanthrene-6,7-diol]	0.03 µM	207 µM (≈ 111 µg/mL)	200 to 500 nM	2.19 h	
COc1cc(F)cc(F)c1C(O)CCC[C@@H](C)[C@H]1CC[C@H]2[C@H]3[C@H](CC[C@]12C)[C@@]1(C)CC[C@H](O)[C@H](O)[C@@H]1CC3(F)F (stereo partly drawn) [Compound 98, (1R,3aS,3bS,5aR,6R,7S,9aR,9bS,11aR)-1-[(2R)-6-(4,6-difluoro-2-methoxyphenyl)-6-hydroxyhexan-2-yl]-4,4-difluoro-9a,11a-dimethylhexadecahydro-1H-cyclopenta[1,2-a]phenanthrene-6,7-diol]	0.095 µM	199 µM (≈ 114 µg/mL)	< 200 nM	4.17 h	
C[C@H](CCCC(C)(C)O)[C@H]1CC[C@@]2(C)C3=C(CC[C@]12C)[C@@]1(C)CC[C@H](O)C(C)(C)[C@@H]1CC3 [Comparative compound 1, reference compound]	0.293 µM	105 µM (≈ 46.7 µg/mL)		0.131 h	959 nM
COc1cc(F)ccc1[C@H](O)CCC[C@@H](C)[C@H]1CC[C@H]2[C@H]3[C@H](CC[C@]12C)[C@@]1(C)CC[C@H](O)[C@H](O)[C@@H]1CC3(F)F [Compound 141, (1R,3aS,3bS,5aR,6R,7S,9aR,9bS,11aR)-4,4-difluoro-1-[(2R,6R)-6-(4-fluoro-2-methoxyphenyl)-6-hydroxyhexan-2-yl]-9a,11a-dimethylhexadecahydro-1H-cyclopenta[1,2-a]phenanthrene-6,7-diol]	0.017 µM	150 µM (≈ 82.9 µg/mL)	< 200 nM	4.85 h	
COc1cc(F)ccc1C(O)CCC[C@@H](C)[C@H]1CC[C@H]2[C@H]3[C@H](CC[C@]12C)[C@@]1(C)CC[C@H](O)[C@H](O)[C@@H]1CC3(F)F (stereo partly drawn) [Compound 35, (1R,3aS,3bS,5aR,6R,7S,9aR,9bS,11aR)-4,4-difluoro-1-[(2R)-6-(4-fluoro-2-methoxyphenyl)-6-hydroxyhexan-2-yl]-9a,11a-dimethylhexadecahydro-1H-cyclopenta[1,2-a]phenanthrene-6,7-diol]	0.051 µM	160 µM (≈ 88.4 µg/mL)	200 to 500 nM	> 3.1 h	
COc1cccc(C(O)CCC[C@@H](C)[C@H]2CC[C@H]3[C@H]4[C@H](CC[C@]23C)[C@@]2(C)CC[C@H](O)[C@H](O)[C@@H]2CC4(F)F)c1F (stereo partly drawn) [Compound 63, (1R,3aS,3bS,5aR,6R,7S,9aR,9bS,11aR)-4,4-difluoro-1-[(2R)-6-(2-fluoro-3-methoxyphenyl)-6-hydroxyhexan-2-yl]-9a,11a-dimethylhexadecahydro-1H-cyclopenta[1,2-a]phenanthrene-6,7-diol]	0.121 µM	147 µM (≈ 81.1 µg/mL)	< 200 nM	> 3.08 h	
COc1cccc(F)c1[C@@H](O)CCC[C@@H](C)[C@H]1CC[C@H]2[C@H]3[C@H](CC[C@]12C)[C@@]1(C)CC[C@H](O)[C@H](O)[C@@H]1CC3(F)F [Compound 127, (1R,3aS,3bS,5aR,6R,7S,9aR,9bS,11aR)-4,4-difluoro-1-[(2R,6S)-6-(2-fluoro-6-methoxyphenyl)-6-hydroxyhexan-2-yl]-9a,11a-dimethylhexadecahydro-1H-cyclopenta[1,2-a]phenanthrene-6,7-diol]	0.07 µM	209 µM (≈ 116 µg/mL)	200 to 500 nM	1.87 h	
COc1cc(F)ccc1[C@@H](O)CCC[C@@H](C)[C@H]1CC[C@H]2[C@H]3[C@H](CC[C@]12C)[C@@]1(C)CC[C@H](O)[C@H](O)[C@@H]1CC3(F)F [Compound 140, (1R,3aS,3bS,5aR,6R,7S,9aR,9bS,11aR)-4,4-difluoro-1-[(2R,6S)-6-(4-fluoro-2-methoxyphenyl)-6-hydroxyhexan-2-yl]-9a,11a-dimethylhexadecahydro-1H-cyclopenta[1,2-a]phenanthrene-6,7-diol]	0.11 µM	178 µM (≈ 98.4 µg/mL)	< 200 nM	5.35 h	
